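Where inhibition never reached the appropriate level, the endpoint shown equals the highest concentration tested. Otherwise, values were interpolated linearly from a five-concentration, 48-hour dose response in 96-well plates. Abbreviation: GI50, concentration required for 50% inhibition of growth.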 Calls of active or inactive are those of the source. Cut-off read from the data, not from the text of the source: active = GI50 up to about 1.1 µM and inactive = higher.
Assays:
Assay in all cases: NCI-60 cell line screen, 48 h
SNB-75 = system: SNB-75
UO-31 = system: UO-31
MDA-MB-435 = system: MDA-MB-435
OVCAR-8 = system: OVCAR-8
SN12C = system: SN12C
CCRF-CEM = system: CCRF-CEM
HCT-116 = system: HCT-116
OVCAR-3 = system: OVCAR-3
OVCAR-5 = system: OVCAR-5
CAKI-1 = system: CAKI-1
T47D = system: T47D
786-0 = system: 786-0
MDA-N = system: MDA-N
NCI-H522 = system: NCI-H522
M14 = system: M14
K562 = system: K562
HL-60 = system: HL-60
MCF7 = system: MCF7
SNB-19 = system: SNB-19
UACC-62 = system: UACC-62
BT-549 = system: BT-549
HCC 2998 = system: HCC 2998
NCI-H23 = system: NCI-H23
ACHN = system: ACHN
HT-29 = system: HT-29
SK-OV-3 = system: SK-OV-3
SK-MEL-28 = system: SK-MEL-28
HCT-15 = system: HCT-15
MDA-MB-231 = system: MDA-MB-231
PC-3 = system: PC-3
UACC-257 = system: UACC-257
SK-MEL-5 = system: SK-MEL-5
SF-295 = system: SF-295
Hs-578T = system: Hs-578T
MOLT-4 = system: MOLT-4
U-251 = system: U-251
HOP-92 = system: HOP-92
NCI/ADR-RES = system: NCI/ADR-RES
LOX IMVI = system: LOX IMVI
OVCAR-4 = system: OVCAR-4
NCI-H460 = system: NCI-H460
SF-539 = system: SF-539
EKVX = system: EKVX
HOP-62 = system: HOP-62
COLO 205 = system: COLO 205
IGROV-1 = system: IGROV-1
NCI-H226 = system: NCI-H226
Malme-3M = system: Malme-3M
A549 = system: A549
RXF 393 = system: RXF 393
TK-10 = system: TK-10
DU-145 = system: DU-145
SW-620 = system: SW-620
A498 = system: A498
KM12 = system: KM12
RPMI-8226 = system: RPMI-8226
SF-268 = system: SF-268
SK-MEL-2 = system: SK-MEL-2

Measured: GI50

O=c1c2ccccc2sc2ccccc12
> 100 µM: HCT-15
inactive: SNB-75 > 100 µM | UO-31 > 100 µM | MDA-MB-435 > 100 µM | OVCAR-8 > 100 µM | SN12C > 100 µM | CCRF-CEM > 100 µM | HCT-116 > 100 µM | OVCAR-3 > 100 µM | OVCAR-5 > 100 µM | CAKI-1 > 100 µM | T47D > 100 µM | 786-0 > 100 µM | MDA-N > 100 µM | NCI-H522 > 100 µM | M14 > 100 µM | K562 > 100 µM | HL-60 > 100 µM | MCF7 > 100 µM | SNB-19 > 100 µM | UACC-62 > 100 µM | BT-549 > 100 µM | HCC 2998 > 100 µM | NCI-H23 > 100 µM | ACHN > 100 µM | HT-29 > 100 µM | SK-OV-3 > 100 µM | SK-MEL-28 > 100 µM | MDA-MB-231 > 100 µM | PC-3 > 100 µM | UACC-257 > 100 µM | SK-MEL-5 > 100 µM | SF-295 > 100 µM | Hs-578T > 100 µM | MOLT-4 > 100 µM | U-251 14.9 µM | HOP-92 > 100 µM | NCI/ADR-RES > 100 µM | LOX IMVI > 100 µM | OVCAR-4 > 100 µM | NCI-H460 > 100 µM | SF-539 > 100 µM | EKVX > 100 µM | HOP-62 > 100 µM | COLO 205 > 100 µM | IGROV-1 > 100 µM | NCI-H226 > 100 µM | Malme-3M > 100 µM | A549 > 100 µM | RXF 393 > 100 µM | TK-10 > 100 µM | DU-145 > 100 µM | SW-620 > 100 µM | A498 > 100 µM | KM12 > 100 µM | RPMI-8226 > 100 µM | SF-268 > 100 µM | SK-MEL-2 > 100 µM

COc1cc2c(cc1OC)C1C(O)C(OC)C=C3CC[N+](C)(C2)C31 (stereo not drawn)
> 100 µM: HCT-15
inactive: SNB-75 > 100 µM | UO-31 > 100 µM | MDA-MB-435 > 100 µM | OVCAR-8 > 100 µM | SN12C > 100 µM | CCRF-CEM > 100 µM | HCT-116 > 100 µM | OVCAR-3 > 100 µM | OVCAR-5 > 100 µM | CAKI-1 > 100 µM | T47D > 100 µM | 786-0 > 100 µM | MDA-N > 100 µM | NCI-H522 > 100 µM | M14 > 100 µM | HL-60 > 100 µM | MCF7 > 100 µM | SNB-19 > 100 µM | UACC-62 > 100 µM | BT-549 > 100 µM | HCC 2998 > 100 µM | NCI-H23 > 100 µM | ACHN > 100 µM | HT-29 > 100 µM | SK-OV-3 > 100 µM | SK-MEL-28 > 100 µM | MDA-MB-231 > 100 µM | PC-3 > 100 µM | UACC-257 > 100 µM | SK-MEL-5 > 100 µM | SF-295 > 100 µM | Hs-578T > 100 µM | MOLT-4 > 100 µM | U-251 > 100 µM | HOP-92 > 100 µM | NCI/ADR-RES > 100 µM | OVCAR-4 > 100 µM | NCI-H460 > 100 µM | SF-539 > 100 µM | EKVX > 100 µM | HOP-62 > 100 µM | COLO 205 > 100 µM | IGROV-1 > 100 µM | NCI-H226 > 100 µM | Malme-3M > 100 µM | A549 > 100 µM | RXF 393 > 100 µM | TK-10 > 100 µM | DU-145 > 100 µM | SW-620 > 100 µM | A498 > 100 µM | KM12 > 100 µM | RPMI-8226 > 100 µM | SF-268 > 100 µM | SK-MEL-2 > 100 µM

Nc1ccccc1N/C=C\C(=O)C(Cl)(Cl)Cl
inactive: SNB-75 22.6 µM | UO-31 19.2 µM | MDA-MB-435 14.8 µM | OVCAR-8 29 µM | SN12C 19 µM | CCRF-CEM 4.26 µM | HCT-116 16.2 µM | OVCAR-5 20.1 µM | CAKI-1 19.6 µM | T47D 18.6 µM | 786-0 15 µM | MDA-N 16.6 µM | NCI-H522 20.2 µM | M14 14.7 µM | K562 17.1 µM | HL-60 22.3 µM | MCF7 14.5 µM | SNB-19 34.1 µM | UACC-62 17.5 µM | BT-549 22.9 µM | HCC 2998 16.6 µM | NCI-H23 22.7 µM | ACHN 16.3 µM | HT-29 18.9 µM | SK-OV-3 25.2 µM | SK-MEL-28 17.5 µM | MDA-MB-231 47.1 µM | PC-3 35.3 µM | UACC-257 21.9 µM | SK-MEL-5 44 µM | SF-295 23.4 µM | Hs-578T 48.8 µM | MOLT-4 11 µM | U-251 25.6 µM | HOP-92 19 µM | NCI/ADR-RES 31 µM | LOX IMVI 15.9 µM | OVCAR-4 19.5 µM | NCI-H460 31.3 µM | SF-539 28.4 µM | EKVX 15 µM | HOP-62 19.3 µM | COLO 205 22.8 µM | IGROV-1 16.4 µM | NCI-H226 82.6 µM | Malme-3M 33.2 µM | A549 67.3 µM | RXF 393 20.1 µM | TK-10 30.6 µM | DU-145 26.7 µM | SW-620 16.7 µM | A498 18.8 µM | KM12 15.5 µM | RPMI-8226 14.3 µM | SF-268 40.3 µM | SK-MEL-2 24.5 µM
19 µM: HCT-15

NC(=O)NC1C(c2ccccc2)=C1c1ccccc1
inactive: UO-31 13.6 µM | MDA-MB-435 18.7 µM | OVCAR-8 12.5 µM | SN12C 13.6 µM | CCRF-CEM 5.47 µM | HCT-116 15.7 µM | OVCAR-3 28.9 µM | OVCAR-5 23.2 µM | CAKI-1 18.9 µM | T47D 69.5 µM | 786-0 22.4 µM | MDA-N 14.5 µM | M14 19.1 µM | K562 15.4 µM | HL-60 31.6 µM | MCF7 14.7 µM | SNB-19 34.8 µM | UACC-62 9.23 µM | BT-549 12.6 µM | HCC 2998 16.5 µM | NCI-H23 21.2 µM | ACHN 10.6 µM | HT-29 21.7 µM | SK-OV-3 15.6 µM | SK-MEL-28 17.1 µM | MDA-MB-231 12.6 µM | PC-3 17.1 µM | UACC-257 18.6 µM | SK-MEL-5 11.1 µM | SF-295 17.6 µM | Hs-578T 27.6 µM | MOLT-4 4.88 µM | U-251 13.9 µM | HOP-92 11.9 µM | NCI/ADR-RES 10.5 µM | LOX IMVI 13.5 µM | OVCAR-4 15.3 µM | NCI-H460 15.5 µM | SF-539 15.4 µM | EKVX 26.8 µM | HOP-62 36.4 µM | COLO 205 13 µM | IGROV-1 12.7 µM | NCI-H226 5.08 µM | Malme-3M 21.1 µM | A549 27.4 µM | RXF 393 3.41 µM | TK-10 18 µM | DU-145 41.3 µM | SW-620 13.7 µM | A498 15 µM | KM12 19.2 µM | RPMI-8226 7.21 µM | SF-268 13.4 µM
13.6 µM: HCT-15

CC(C)(C)C1(O)C=C(O)C(=O)N1NC(=O)c1ccccc1Nc1ccccc1 (stereo not drawn)
active: HL-60 0.847 µM
22.9 µM: HCT-15
inactive: SNB-75 61.4 µM | UO-31 > 100 µM | MDA-MB-435 40.6 µM | OVCAR-8 37.9 µM | SN12C 60.5 µM | CCRF-CEM 8.43 µM | HCT-116 38.6 µM | OVCAR-3 6.84 µM | OVCAR-5 84.5 µM | CAKI-1 > 100 µM | T47D 36.1 µM | 786-0 56.9 µM | MDA-N 62.2 µM | NCI-H522 16.6 µM | M14 76.4 µM | K562 20.2 µM | MCF7 33.3 µM | SNB-19 54.8 µM | UACC-62 24.8 µM | BT-549 28 µM | HCC 2998 19.2 µM | NCI-H23 41 µM | ACHN 47.5 µM | HT-29 41.1 µM | SK-OV-3 25.4 µM | SK-MEL-28 50.2 µM | MDA-MB-231 42 µM | PC-3 40 µM | UACC-257 24.2 µM | SK-MEL-5 35.4 µM | SF-295 25.2 µM | Hs-578T 87.1 µM | MOLT-4 2.4 µM | U-251 18.2 µM | HOP-92 38.7 µM | NCI/ADR-RES 27.7 µM | LOX IMVI 17.5 µM | OVCAR-4 32.9 µM | NCI-H460 34.4 µM | SF-539 41.4 µM | EKVX 53.6 µM | COLO 205 29 µM | IGROV-1 66.7 µM | NCI-H226 48.2 µM | Malme-3M 32.7 µM | A549 > 100 µM | RXF 393 60.5 µM | TK-10 46.3 µM | DU-145 > 100 µM | SW-620 34 µM | A498 32.1 µM | KM12 40.9 µM | RPMI-8226 54.2 µM | SF-268 24.7 µM | SK-MEL-2 24.7 µM
